Data on 1 compound can be found in patent US9663486B2, “Selectively substituted quinoline compounds” (EISAI R&D MANAGEMENT CO., LTD., priority 2013, dated 2017).

The test system of one assay is Human TLR7/8. As to the kind of experiment: Human PBMC cell-based assay, TLR7/8 (RNA-Ig), cytokine ELISA. Conditions: Hu PBMC; ligand RNA-Ig; read-out: IC50, IL-6, Human TLR7/8. As for the experimental part:
Human peripheral blood mononuclear cells (PBMC) were isolated from freshly-drawn heparinized (10 USP units/ml, Hospira, Lakeforest, Ill.) healthy donor whole blood by density gradient (Histopaque® 1077, Sigma, Inc., St. Louis, Mo.). Briefly, 25 ml blood was diluted with 15 ml PBS (without Ca^2+, Mg^2+) in a 50 ml conical tube, and 12 ml Histopaque was underlaid using a spinal needle. Tubes were centrifuged for 45 minutes at 1200 rpm (350×g), and PBMC were collected from the buffy coat. Cells were then washed twice in PBS, and red blood cells were lysed by suspension in 5 ml ammonium chloride solution (1× Red Blood Cell Lysis Buffer, eBioscience) for 5 minutes at room temperature. After a final wash in PBS, PBMC were resuspended at a final concentration of 2×10^6/ml in RPMI-1640 media with L-glutamine (Invitrogen) and supplemented with 25 mM HEPES (Mediatech, Inc, Manassas Va.), 10% fetal bovine serum (HyClone, Logan, Utah), and Penicillin-Streptomycin-Glutamine (Mediatech) and plated at 100 ul/well (2×10^5 cells/well) in tissue culture treated 96-well plates (Falcon).
Antagonist compounds solubilized and serial diluted in 100% DMSO were added in triplicate to cells to yield a final concentration of 0.1% DMSO (v/v). Hydroxychloroquine (Acros Organics) solubilized and serial diluted in PBS was added in triplicate to cells. PBMC were incubated with antagonist compounds or HCQ for 30 minutes at 37° C., 5% CO2 before adding various TLR agonist reagents in 100 ul complete media per well as follows (final concentrations indicated): R848 (Resiquimod; GLSynthesis, Worcester, Mass.) at 1 uM for TLR7 and TLR8, Pam3CSK4 (InvivoGen) at 50 ng/ml for TLR1/2, LPS (Sigma) at 10 ng/ml for TLR4, and CpG-2216 (InvivoGen) at 5 ug/ml for TLR9. […] The resulting “RNA-Ig” stimulus was incubated at room temperature for 15-30 minutes before adding to cells. PBMC were incubated with the various TLR agonists for 20 hours at 37° C., 5% CO2. Cell culture supernatants were collected, and levels of various human cytokines were assessed as indicated by standard ELISA procedure according to the manufacturer's recommended protocol (BD Biosciences, Inc., San Diego, Calif.).
(In general: In an ELISA, binding on a coated surface is turned into a signal by an enzyme label.)

The subject of the next assay is IFN-regulated genes. Nature of the assay: DBA/1 pristane lupus model, IFN-regulated gene expression in whole blood (qPCR, IFN score). It counts as in vivo, mouse. Conditions: Pristane-induced diseased animals, DBA/1 mice, once-a-day oral dosing. Here is the method:
FIG. 1A through FIG. 1D show results of treatment with ER-888840 (5-((3R,5S)-3-amino-5-methylpiperidin-1-yl)quinoline-8-carbonitrile) in the DBA/1 pristane model. Figure Legend: Female DBA/1 mice at 10 weeks of age were given an intraperitoneal injection of 0.5 ml pristane or PBS. At 18 weeks of age animals were bled for pre-dosing baseline auto-antibody titers. Once-a-day oral dosing with Vehicle (Veh; 0.5% methyl-cellulose) or 11 mg/kg, 33 mg/kg, or 100 mg/kg of ER-888840 was begun at 18 weeks of age, 8 weeks after pristane injection and continued for 12 weeks of treatment. At the end of the experiment plasma samples were taken and anti-dsDNA and anti-histone (FIG. 1A) and anti-Sm/RNP and anti-RiboP (FIG. 1B) titers were determined by ELISA. (FIG. 1C) The expression of IFN-regulated genes in whole blood was measured by a qPCR panel after 8 weeks of treatment. […] (FIG. 1D) The interferon scores of individual mice were calculated (see Pharmacology Materials and Methods section for details regarding IFN score calculation) and groups compared using the Mann-Whitney t test.
FIG. 2A through 2E show results of treatment with ER-888840 in the DBA/1 pristane model. […] At the end of the experiment plasma was taken and anti-dsDNA (FIG. 2A), anti-RiboP (FIG. 2B), anti-histone (FIG. 2C) and anti-Sm/RNP (FIG. 2D) titers were determined by ELISA. […]
(In qPCR the cycle at which signal appears reflects the starting amount.)

Entries after “also recorded” stand apart in the source; their conditions may differ.

For `C[C@H]1C[C@@H](N)CN(c2ccc(C#N)c3ncccc23)C1` [ER-888840, 5-((3R,5S)-3-amino-5-methylpiperidin-1-yl)quinoline-8-carbonitrile], in the assay on Human TLR7/8, the IC50 is 1.4 nM. Moreover, the “effect on interferon-regulated gene expression (interferon score)” value with IFN-regulated genes is on record as “dose-dependently significantly reduced interferon-regulated gene expression; also recorded: suppressed the upregulation of interferon-driven genes”.
